In brackets after ≈: the same amount, converted by molar mass. Where only a bound is given, the exact number is not on record here.

In the first test the test system is Enterococcus faecalis ATCC 29212. Briefly: MIC testing against Enterococcus faecalis ATCC 29212. Format: cell-based.
Conditions: not given
As to the method:
Minimum Inhibitory Concentration (MIC) Testing Compounds of this invention were tested for antimicrobial activity by susceptibility testing in liquid or on solid media. MICs for compounds against each strain were determined by the broth microdilution or agar dilution method according to the guidelines of the Clinical Laboratories and Standards Institute, formerly the National Committee for Clinical Laboratory Standards (Clinical Laboratories and Standards Institute. Methods for Dilution Antimicrobial Susceptibility Tests for Bacteria That Grow Aerobically; Approved Standard—Seventh Edition. Document M7-A7. CLSI, Wayne, Pa., 2006; Clinical Laboratories and Standards Institute. Methods for Antimicrobial Susceptibility Testing of Anaerobic Bacteria; Approved Standard—Sixth Edition. Document M11-A6. CLSI, Wayne, Pa., 2004).
For the compound “tert-butyl 3-((4-(2-(3-ethylureido)-6-fluorobenzo[d]thiazol-5-yl)-5-yl)-2,2′-dioxo-2H-1,4′-bipyridin-1′(2′H)-yl)methyl)piperidine-1-carboxylate [Example 64]”, the “MICs against Enterococcus faecalis, Activity” value is given as “B (MICs of 0.25-1 μg/ml)”.

The test is the same for the next values; noted with them: ATCC29212, read-out: MICs against Enterococcus faecalis, Activity.
Regarding `CCNC(=O)Nc1nc2cc(-c3ccc(NC(C)=O)nc3)ccc2s1` [Example 26, N-(5-(2-(3-ethylureido)benzo[d]thiazol-5-yl)pyridin-2-yl)acetamide], the MIC was in the range of 2 to 16 mg/L (≈ 5.63 to 45 µM). `CCNC(=O)Nc1nc2cc(-c3ccn(C)c(=O)c3)c(OC)cc2s1` [Example 72, 1-ethyl-3-(6-methoxy-5-(1-methyl-2-oxo-1,2-dihydropyridin-4-yl)benzo[d]thiazol-2-yl)urea]: the MIC lay within 0.25 to 1 mg/L (≈ 0.697 to 2.79 µM). Same read-out and setting: next, `CCNC(=O)Nc1nc2cc(-c3cnc(N4CCCC(C(=O)O)C4)nc3)c(F)cc2s1` (stereo not drawn) [Example 46, 1-(5-(2-(3-ethylureido)-6-fluorobenzo[d]thiazol-5-yl)pyrimidin-2-yl)piperidine-3-carboxylic acid]: 0.25 to 1 mg/L (≈ 0.562 to 2.25 µM). Take `CCNC(=O)Nc1nc2cc(-c3cc(C)n(Cc4cn(C)cn4)c(=O)c3)c(F)cc2s1` [Example 52, 1-ethyl-3-(6-fluoro-5-(6-methyl-1-((1-methyl-1H-imidazol-4-yl)methyl)-2-oxo-1,2-dihydropyridin-4-yl)benzo[d]thiazol-2-yl)urea]: the MIC is 0.25 to 1 mg/L (≈ 0.568 to 2.27 µM). Take `CCNC(=O)Nc1nc2cc(-c3cc(C)oc(=O)c3)c(F)cc2s1` [Example 40, 1-ethyl-3-(6-fluoro-5-(6-methyl-2-oxo-2H-pyran-4-yl)benzo[d]thiazol-2-yl)urea]: the MIC lay within 0.25 to 1 mg/L (≈ 0.72 to 2.88 µM). Still for that read-out and setting: next, `CCNC(=O)Nc1nc2cc(-c3cnc(N4CCN(CCO)CC4)nc3)c(F)cc2s1` [Example 41, 1-ethyl-3-(6-fluoro-5-(2-(4-(2-hydroxyethyl)piperazin-1-yl)pyrimidin-5-yl)benzo[d]thiazol-2-yl)urea]: 2 to 16 mg/L (≈ 4.49 to 35.9 µM); `CCNC(=O)Nc1nc2cc(-c3ccc(NC(C)=O)nc3)cnc2s1` [Example 76, N-(5-(2-(3-ethylureido)thiazolo[5,4-b]pyridin-6-yl)pyridin-2-yl)acetamide]: 2 to 16 mg/L (≈ 5.61 to 44.9 µM); `CCNC(=O)Nc1nc2cc(-c3ccn(C4CCNC4)c(=O)c3)c(F)cc2s1` (stereo not drawn) [Example 67, 1-ethyl-3-(6-fluoro-5-(2-oxo-1-(pyrrolidin-3-yl)-1,2-dihydropyridin-4-yl)benzo[d]thiazol-2-yl)urea]: 2 to 16 mg/L (≈ 4.98 to 39.9 µM).

With `CCNC(=O)Nc1nc2cc(-c3ccc4nccn4c3)ccc2s1` [Example 6, 1-ethyl-3-(5-(imidazo[1,2-a]pyridin-6-yl)benzo[d]thiazol-2-yl)urea], the MIC fell in the range of 2 to 16 mg/L (≈ 5.93 to 47.4 µM). Take `CCNC(=O)Nc1nc2cc(-c3cnc4ccccn34)ccc2s1` [Example 24, 1-ethyl-3-(5-(imidazo[1,2-a]pyridin-3-yl)benzo[d]thiazol-2-yl)urea]: the MIC fell in the range of 2 to 16 mg/L (≈ 5.93 to 47.4 µM). On the same count and under the same terms, for `CCNC(=O)Nc1nc2cc(-c3cncc(OC)c3)c(F)cc2s1` [Example 58, 1-ethyl-3-(6-fluoro-5-(5-methoxypyridin-3-yl)benzo[d]thiazol-2-yl)urea] the value was 0.25 to 1 mg/L (≈ 0.722 to 2.89 µM). The same measure, in the same setting: next, `CCNC(=O)Nc1nc2cc(-c3cncc4ccccc34)ccc2s1` [Example 20, 1-ethyl-3-(5-(isoquinolin-4-yl)benzo[d]thiazol-2-yl)urea]: 0.25 to 1 mg/L (≈ 0.718 to 2.87 µM).

Consider `CCNC(=O)Nc1nc2cc(-c3cccnc3)ccc2s1` [Example 1, 1-Ethyl-3-(5-pyridin-3-yl-benzothiazol-2-yl)-urea], for which the MIC was in the range of 0.25 to 1 mg/L (≈ 0.838 to 3.35 µM). The same measure, in the same setting: next, `CCNC(=O)Nc1nc2cc(-c3cnc(N4CCC(C(=O)O)CC4)nc3)c(F)cc2s1` [Example 44, 1-(5-(2-(3-ethylureido)-6-fluorobenzo[d]thiazol-5-yl)pyrimidin-2-yl)piperidine-4-carboxylic acid]: less than 0.25 mg/L; `CCNC(=O)Nc1nc2cc(-c3cccnc3)c(C)cc2s1` [Example 73, 1-ethyl-3-(6-methyl-5-(pyridin-3-yl)benzo[d]thiazol-2-yl)urea]: 2 to 16 mg/L (≈ 6.4 to 51.2 µM). `CCNC(=O)Nc1nc2cc(-c3c[nH]c4ncccc34)c(F)cc2s1` [Example 48, 1-ethyl-3-(6-fluoro-5-(1H-pyrrolo[2,3-b]pyridin-3-yl)benzo[d]thiazol-2-yl)urea]: the MIC is 0.25 to 1 mg/L (≈ 0.703 to 2.81 µM).

Regarding `CCNC(=O)Nc1nc2cc(-c3cnc(CO)n3C)ccc2s1` [Example 11, 1-ethyl-3-(5-(2-(hydroxymethyl)-1-methyl-1H-imidazol-5-yl)benzo[d]thiazol-2-yl)urea], the MIC fell in the range of 2 to 16 mg/L (≈ 6.03 to 48.3 µM). Take `CCNC(=O)Nc1nc2cc(-c3ccn(C)c(=O)c3)c(C)cc2s1` [Example 74, 1-ethyl-3-(6-methyl-5-(1-methyl-2-oxo-1,2-dihydropyridin-4-yl)benzo[d]thiazol-2-yl)urea]: the MIC is 0.25 to 1 mg/L (≈ 0.73 to 2.92 µM).

On to `CCNC(=O)Nc1nc2cc(-c3cnn(CCN4CCOCC4)c3)ccc2s1` [Example 16, 1-ethyl-3-(5-(1-(2-morpholinoethyl)-1H-pyrazol-4-yl)benzo[d]thiazol-2-yl)urea], for which the MIC lay in the range of 2 to 16 mg/L (≈ 4.99 to 39.9 µM).

For the compound `CCNC(=O)Nc1nc2cc(-c3cccnc3)cnc2s1` [Example 75, 1-ethyl-3-(6-(pyridin-3-yl)thiazolo[5,4-b]pyridin-2-yl)urea], the MIC was 2 to 16 mg/L (≈ 6.68 to 53.4 µM).

For the compound `CCNC(=O)Nc1nc2cc(-c3ccn(Cc4ncccc4OC)c(=O)c3)c(F)cc2s1` [Example 79, 1-Ethyl-3-{6-fluoro-5-[1-(3-methoxy-pyridin-2-ylmethyl)-2-oxo-1,2-dihydro-pyridin-4-yl]-benzothiazol-2-yl}-urea], the MIC was less than 0.25 mg/L. Turning to `CCNC(=O)Nc1nc2cc(-c3ccc(C(=O)OC)nc3)ccc2s1` [Example 15, methyl 5-(2-(3-ethylureido)benzo[d]thiazol-5-yl)picolinate], the MIC fell in the range of 2 to 16 mg/L (≈ 5.61 to 44.9 µM). `CCNC(=O)Nc1nc2cc(-c3cc(C)n(CC4CCCCN4C)c(=O)c3)c(F)cc2s1` (stereo not drawn) [Example 51, 1-ethyl-3-(6-fluoro-5-(6-methyl-1-((1-methylpiperidin-2-yl)methyl)-2-oxo-1,2-dihydropyridin-4-yl)benzo[d]thiazol-2-yl)urea]: the MIC lay in the range of 2 to 16 mg/L (≈ 4.37 to 35 µM). On the same count and under the same terms, for `CCNC(=O)Nc1nc2cc(-c3ccn(C)c(=O)c3)c(F)cc2s1` [Example 61, 1-ethyl-3-(6-fluoro-5-(1-methyl-2-oxo-1,2-dihydropyridin-4-yl)benzo[d]thiazol-2-yl)urea] the value was 0.25 to 1 mg/L (≈ 0.722 to 2.89 µM). For `CCNC(=O)Nc1nc2cc(-c3cnc4c(c3)OCCN4)ccc2s1` [Example 8, 1-(5-(3,4-dihydro-2H-pyrido[3,2-b][1,4]oxazin-7-yl)benzo[d]thiazol-2-yl)-3-ethylurea], the MIC lay in the range of 2 to 16 mg/L (≈ 5.63 to 45 µM). Take `CCNC(=O)Nc1nc2cc(-c3cncs3)c(F)cc2s1` [Example 69, 1-ethyl-3-(6-fluoro-5-(thiazol-5-yl)benzo[d]thiazol-2-yl)urea]: the MIC lay in the range of 2 to 16 mg/L (≈ 6.2 to 49.6 µM). Same read-out and setting: for `CCNC(=O)Nc1nc2cc(-c3ccc(=O)n(CC(=O)OCC)c3)ccc2s1` [Example 12, ethyl 2-(5-(2-(3-ethylureido)benzo[d]thiazol-5-yl)-2-oxopyridin-1(2H)-yl)acetate] the value was 2 to 16 mg/L (≈ 4.99 to 40 µM); for `CCNC(=O)Nc1nc2cc(-c3ccc(-c4noc(C)n4)nc3)c(F)cc2s1` [Example 55, 1-ethyl-3-(6-fluoro-5-(6-(5-methyl-1,2,4-oxadiazol-3-yl)pyridin-3-yl)benzo[d]thiazol-2-yl)urea], 0.25 to 1 mg/L (≈ 0.627 to 2.51 µM); for `CCNC(=O)Nc1nc2cc(-c3ccc(CO)nc3)ccc2s1` [Example 9, 1-ethyl-3-(5-(6-(hydroxymethyl)pyridin-3-yl)benzo[d]thiazol-2-yl)urea], 2 to 16 mg/L (≈ 6.09 to 48.7 µM). Same read-out and setting: next, `CCNC(=O)Nc1nc2cc(-c3cnn(C)c3)ccc2s1` [Example 18, 1-ethyl-3-(5-(1-methyl-1H-pyrazol-4-yl)benzo[d]thiazol-2-yl)urea]: 2 to 16 mg/L (≈ 6.64 to 53.1 µM). With `CCNC(=O)Nc1nc2cc(-c3cc(OC)ccn3)c(F)cc2s1` [Example 56, 1-ethyl-3-[6-fluoro-5-(4-methoxy-pyridin-2-yl)-benzothiazol-2-yl]-urea], the MIC lay in the range of 2 to 16 mg/L (≈ 5.77 to 46.2 µM).

In the case of `CCNC(=O)Nc1nc2cc(-c3cc(C)n(CCCN(C)C)c(=O)c3)c(F)cc2s1` [Example 54, 1-(5-(1-(3-(dimethylamino)propyl)-6-methyl-2-oxo-1,2-dihydropyridin-4-yl)-6-fluorobenzo[d]thiazol-2-yl)-3-ethylurea], the MIC lay in the range of 2 to 16 mg/L (≈ 4.63 to 37.1 µM). `CCNC(=O)Nc1nc2cc(-c3cc(C)oc(=O)c3)ccc2s1` [Example 14, 1-ethyl-3-(5-(6-methyl-2-oxo-2H-pyran-4-yl)benzo[d]thiazol-2-yl)urea]: the MIC lay in the range of 2 to 16 mg/L (≈ 6.07 to 48.6 µM).

Take `CCNC(=O)Nc1nc2cc(-c3ccc(=O)n(CCOCC)c3)ccc2s1` [Example 13, 1-(5-(1-(2-ethoxyethyl)-6-oxo-1,6-dihydropyridin-3-yl)benzo[d]thiazol-2-yl)-3-ethylurea]: the MIC fell in the range of 2 to 16 mg/L (≈ 5.17 to 41.4 µM). Consider `CCNC(=O)Nc1nc2cc(-c3cc(C)n(Cc4cccc(C)n4)c(=O)c3)ccc2s1` [Example 33, 1-ethyl-3-(5-(6-methyl-1-((6-methylpyridin-2-yl)methyl)-2-oxo-1,2-dihydropyridin-4-yl)benzo[d]thiazol-2-yl)urea], for which the MIC was in the range of 0.25 to 1 mg/L (≈ 0.577 to 2.31 µM). Take `CCNC(=O)Nc1nc2cc(-c3cc(C)n(C(C)c4ccc(C)nc4)c(=O)c3)c(F)cc2s1` (stereo not drawn) [Example 78, 1-ethyl-3-(6-fluoro-5-{6-methyl-1-[1-(6-methyl-pyridin-3-yl)-ethyl]-2-oxo-1,2-dihydro-pyridin-4-yl}-benzothiazol-2-yl)-urea]: the MIC lay within 0.25 to 1 mg/L (≈ 0.537 to 2.15 µM).

`CCNC(=O)Nc1nc2cc(-c3ccc4nnnn4c3)ccc2s1` [Example 7, 1-ethyl-3-(5-(tetrazolo[1,5-a]pyridin-6-yl)benzo[d]thiazol-2-yl)urea]: the MIC lay in the range of 2 to 16 mg/L (≈ 5.89 to 47.1 µM). Same read-out and setting: for `CCNC(=O)Nc1nc2cc(-c3ccc(NC(C)=O)nc3)c(F)cc2s1` [Example 38, N-(5-(2-(3-ethylureido)-6-fluorobenzo[d]thiazol-5-yl)pyridin-2-yl)acetamide] the value was 0.25 to 1 mg/L (≈ 0.669 to 2.68 µM).
